Measured values: patent publication US5932587A, “Heterocyclic-fused pyridines” (Bayer Aktiengesellschaft, priority 1996, dated 1999)
pIC50: −log10 of the molar value.

Columns and labels:
[1] = test system: CETP; assay: Ex vivo activity: CETP activity in serum of treated Syrian golden hamsters; details: ex vivo CETP activity in hamster serum; for ED50 (ex vivo activity): up to 24 hours after administration
Experimental: Ex vivo activity of the compounds according to the invention
Syrian golden hamsters from in-house breeding are anaesthetized after fasting for 24 hours (0.8 mg/kg of atropine, 0.8 mg/kg of Ketavet® s.c., 30' later 50 mg/kg of Nembutal i.p.). The jugular vein is then exposed and cannulated. The test substance is dissolved in a suitable solvent (as a rule Adalat placebo solution: 60 g of glycerol, 100 ml of H2 O, PEG-400 to 1000 ml) and administered to the animals via a PE catheter inserted in the jugular vein. The control animals receive the same volume of solvent without test substance. The vein is then tied off and the wound is closed.
The administration of the test substances can also be carried out p.o., by orally administering the substances dissolved in DMSO and suspended in 0.5% Tylose by means of a stomach tube. The control animals receive identical volumes of solvent without test substance.
After various times--up to 24 hours after administration--blood (about 250 μl) is taken from the animals by puncture of the retro-orbital venous plexus. Clotting is ended by incubation at 4° C. overnight, then centrifugation is carried out at 6000×g for 10 minutes. In the serum thus obtained, CETP activity is determined by the modified CETP test. As for the CETP test described above, the transfer of ^3 H-cholesterol ester from HD lipoproteins to biotinylated LD lipoproteins is measured.
The reaction is ended by addition of Streptavidin-SPA®beads (Amersham) and the transferred radioactivity is determined directly in the liquid scintillation counter.
The test mixture is carried out as described under "CETP test". For the testing of the serum, only 10 μl of CETP are replaced by 10 μl of the corresponding serum samples. As controls, corresponding incubations with sera of untreated animals are used.
The activity transferred in the control mixtures with control sera is rated as 100% transfer. The substance concentration at which this transfer is reduced to a half is indicated as the ED50 value.

[2] = In vivo activity: oral action on lipoproteins and triglycerides in Syrian golden hamsters (HDL rise); details: dose 2 × 3 mg/kg, hamster, up to 24 hours after administration
Experimental: In vivo activity of the compounds according to the invention
In experiments to determine the oral action on lipoproteins and triglycerides, test substance dissolved in DMSO and 0.5% Tylose suspended by means of a stomach tube are administered orally to Syrian golden hamsters from in-house breeding. To determine the CETP activity, blood (about 250 μl) is taken by retro-orbital puncture before the start of the experiment. The test substances are then administered orally by means of a stomach tube. The control animals receive identical volumes of solvent without test substance. […]
Clotting is ended by incubation at 4° C. overnight, then centrifugation at 6000×g is carried out for 10 minutes. In the serum thus obtained, the content of cholesterol and triglycerides is determined with the aid of modified commercially available enzyme tests (cholesterol enzymatic 14366 Merck, triglycerides 14364 Merck). […]
100 μl of serum dilution are mixed with 100 μl of test substance in 96-hole plates and incubated at room temperature for 10 minutes. The optical density is then determined at a wavelength of 492 nm using an automatic plate-reading apparatus. The triglyceride or cholesterol concentration contained in the samples is determined with the aid of a standard curve measured in parallel. […]

[3] = target: T1, cholesterol ester transfer protein (CETP) (Homo sapiens, UniProt P11597); assay: CETP inhibition test (transfer of 3H-cholesterol ester from human HDL to biotinylated LDL, SPA); assay type: biochemical; details: 37° C., 18 h
T1 construct: CETP is obtained from human plasma in partially purified form; from tissue; host or cells: human plasma (partially purified in house by differential centrifugation and column chromatography)
T1 sequence (P11597 18-493): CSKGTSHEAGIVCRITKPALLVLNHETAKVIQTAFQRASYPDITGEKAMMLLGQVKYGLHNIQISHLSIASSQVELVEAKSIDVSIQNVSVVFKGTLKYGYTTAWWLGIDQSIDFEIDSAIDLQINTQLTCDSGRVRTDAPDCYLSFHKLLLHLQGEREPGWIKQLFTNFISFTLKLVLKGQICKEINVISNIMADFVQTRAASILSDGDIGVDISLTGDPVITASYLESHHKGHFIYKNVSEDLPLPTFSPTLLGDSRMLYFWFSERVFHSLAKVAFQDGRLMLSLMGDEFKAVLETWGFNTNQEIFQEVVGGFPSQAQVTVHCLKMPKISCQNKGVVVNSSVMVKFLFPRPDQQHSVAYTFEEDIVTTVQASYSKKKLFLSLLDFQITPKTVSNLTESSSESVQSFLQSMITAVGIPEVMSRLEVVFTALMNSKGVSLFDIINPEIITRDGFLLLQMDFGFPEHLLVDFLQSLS
Experimental: CETP is obtained from human plasma in partially purified form by differential centrifugation and column chromatography and used for the test. To this end, human plasma is adjusted to a density of 1.21 g per ml using NaBr and centrifuged at 4° C. for 18 h at 50,000 rpm. The bottom fraction (d>1.21 g/ml) is applied to a Sephadex®phenyl-sepharose 4B (Pharmacia) column, washed with 0.15 M NaCl/0.001 M tris HCl pH 7.4 and then eluted with distilled water. The CETP-active fractions are pooled, dialysed against 50 mM Na acetate pH 4.5 and applied to a CM-Sepharose® (Pharmacia) column. The column is then eluted using a linear gradient (0-1 M NaCl). The pooled CETP fractions are dialysed against 10 mM tris HCl pH 7.4 and then further purified by chromatography on a Mono Q® column (Pharmacia).
Obtainment of radiolabelled HDL
50 ml of fresh human EDTA plasma are adjusted to a density of 1.12 using NaBr and centrifuged at 50,000 rpm for 18 h at 4° C. in a Ty 65 rotor. The upper phase is used to obtain cold LDL. The lower phase is dialysed against 3×4 l of PDB buffer (10 mM tris/HCl pH 7.4, […], 1 mM EDTA, 0.02% NaN3). 20 μl of ^3 H-cholesterol (Dupont NET-725; 1 μC/μl dissolved in ethanol) are then added per 10 ml of retentate volume and the mixture is incubated under N2 at 37° C. for 72 h. […]
To test the CETP activity, the transfer of ^3 H-cholesterol ester from human HD lipoproteins to biotinylated LD lipoproteins is measured. The reaction is ended by addition of streptavidin-SPA®beads (Amersham) and the transferred radioactivity is determined directly in a liquid scintillation counter.
In the test mixture, 10 μl of HDL-^3 H-cholesterol ester (~50,000 cpm) are incubated at 37° C. for 18 h with 10 μl of biotin-LDL (Amersham) in 50 mM Hepes/0.15 M NaCl/0.1% bovine serum albumin/0.05% NaN3 pH 7.4 with 10 μl of CETP (1 mg/ml) and 3 μl of solution of the substance to be tested (dissolved in 10% DMSO/1% RSA). 200 μl of the SPA-streptavidin bead solution (TRKQ 7005) are then added, the mixture is incubated further for 1 h with shaking and then measured in the scintillation counter. […]

[4] = In vivo activity in transgenic hCETP mice (change in HDL, LDL, triglycerides); details: 80 ppm in the feed, one week
Experimental: In vivo activity in transgenic hCETP mice
Transgenic mice from in-house breeding (Dinchuck, Hart, Gonzalez Karmann Schmidt, Wirak; BBA (1995), 1295, 301) were administered the substances to be tested in the feed. Before the start of the experiment, blood was taken retro-orbitally from the mice in order to determine cholesterol and triglycerides in the serum. The serum was obtained as described above for hamsters by incubation at 4° C. overnight and subsequent centrifugation at 6000×g. After one week, blood was again taken from the mice in order to determine lipoproteins and triglycerides. The change in the parameters measured is expressed as a percentage change compared with the starting value.

Row | Compound | ED50 (ex vivo activity) [1] | % Inhibition at 10 mg/kg [1] | % HDL rise [2] | pIC50 [3] | HDL (percentage change compared with the starting value) [4] | LDL (percentage change compared with the starting value) [4] | Triglycerides (percentage change compared with the starting value) [4]
1 | CC1CC(O)c2c(nc(C3CCCC3)c(C(O)c3ccc(C(F)(F)F)cc3)c2-c2ccc(F)cc2)N1Cc1ccccc1 (single isomer, unassigned) [Example 21] | > 10 mg/kg | 34.4% | – | – | – | – | –
2 | OC1CSCc2nc(C3CCCC3)c(C(F)c3ccc(C(F)(F)F)cc3)c(-c3ccc(F)cc3)c21 (centres unmarked) [Example 12] | < 10 mg/kg | 49.5% | 12.37% | 6.70 | – | – | –
3 | O=S1(=O)Cc2nc(C3CCCC3)c(C(O)c3ccc(C(F)(F)F)cc3)c(-c3ccc(F)cc3)c2C(O)C1 (centres unmarked) [Example 14] | – | – | – | 5.22 | – | – | –
4 | OC1CCN(Cc2ccccc2)c2nc(C3CCCC3)c(Cc3ccc(C(F)(F)F)cc3)c(-c3ccc(F)cc3)c21 (centres unmarked) [Example 16] | – | – | – | 6.07 | – | – | –
5 | CC1CC(O)c2c(nc(C3CCCC3)c(Cc3ccc(C(F)(F)F)cc3)c2-c2ccc(F)cc2)N1Cc1ccccc1 (centres unmarked) [Example 20] | > 10 mg/kg | 50.4% | 9.21% | – | +14.5% | +6.7% | -24.5%
